The values that follow come from PubChem BioAssay AID1259407 (Chemical Carcinogenesis Research Information System (CCRIS), 2018).

Calls of active or inactive are those of the source. How the calls were made is not given here.

This data set concerns CCRIS mutagenicity, Ames/micronucleus/aberration tests. Put plainly: CCRIS mutagenicity studies.

For the molecule `Nc1ccc([N+](=O)[O-])cc1Cl`, the mutagenic call runs as follows: (End Point: IN VITRO CHROMOSOMAL ABERRATIONS, Test System: CHL CELLS, Metabolic Activation: RAT, LIVER, S-9, SODIUM PHENOBARBITAL AND 5,6-BENZOFLAVONE) “active; positive (structural changes)”; (End Point: IN VITRO MICRONUCLEUS, Test System: CHL/IU CELLS, Metabolic Activation: NONE) “inactive; negative”; (Test System: AMES SALMONELLA TYPHIMURIUM, Strain/Indicator: TA98, Metabolic Activation: NONE, Method: PREINCUBATION) “active; positive”; (Test System: AMES SALMONELLA TYPHIMURIUM, Strain/Indicator: TA98, Metabolic Activation: RAT, LIVER, S-9, KANECHLOR 500, Method: PREINCUBATION) “active; positive”; (Test System: AMES SALMONELLA TYPHIMURIUM, Strain/Indicator: TA100, Metabolic Activation: NONE, Method: PREINCUBATION) “inactive; negative”; (Test System: AMES SALMONELLA TYPHIMURIUM, Strain/Indicator: TA100, Metabolic Activation: RAT, LIVER, S-9, KANECHLOR 500, Method: PREINCUBATION) “inactive; negative”. For the same molecule, the mutagenic call (Test System: UDS RODENT HEPATOCYTES, Strain/Indicator: THY INCORP (NON-S-PHASE), Metabolic Activation: NONE, Method: AUTORADIOGRAPHY) was “inactive; negative”.

Turning to `O=S=O`, the mutagenic call (End Point: IN VIVO CHROMOSOMAL ABERRATIONS, Test System: BONE MARROW CELLS, Species: MOUSE, Strain/Sex: KUNMING/MALE, FEMALE, Route: INHALATION) is “active; positive; exposure up to 5 d not effective”.

Consider `Nc1ncc([N+](=O)[O-])s1`, for which the mutagenic call was “inactive; negative” (Test System: AMES SALMONELLA TYPHIMURIUM, Strain/Indicator: TA98, Metabolic Activation: HAMSTER, LIVER, S-9, AROCLOR 1254, Method: STANDARD PLATE); “inactive; negative” (Test System: AMES SALMONELLA TYPHIMURIUM, Strain/Indicator: TA98, Metabolic Activation: HAMSTER, LIVER, S-9, Method: STANDARD PLATE); “inactive; negative” (Test System: AMES SALMONELLA TYPHIMURIUM, Strain/Indicator: TA98, Metabolic Activation: MOUSE, LIVER, S-9, AROCLOR 1254, Method: STANDARD PLATE); “inactive; negative” (Test System: AMES SALMONELLA TYPHIMURIUM, Strain/Indicator: TA98, Metabolic Activation: MOUSE, LIVER, S-9, Method: STANDARD PLATE); “inactive; negative” (Test System: AMES SALMONELLA TYPHIMURIUM, Strain/Indicator: TA98, Metabolic Activation: NONE, Method: STANDARD PLATE); “inactive; negative” (Test System: AMES SALMONELLA TYPHIMURIUM, Strain/Indicator: TA98, Metabolic Activation: RAT, LIVER, S-9, AROCLOR 1254, Method: STANDARD PLATE). In addition, the mutagenic call was “inactive; negative” (Test System: AMES SALMONELLA TYPHIMURIUM, Strain/Indicator: TA98, Metabolic Activation: RAT, LIVER, S-9, Method: STANDARD PLATE); “inactive; negative” (Test System: AMES SALMONELLA TYPHIMURIUM, Strain/Indicator: TA100, Metabolic Activation: HAMSTER, LIVER, S-9, AROCLOR 1254, Method: STANDARD PLATE); “inactive; negative” (Test System: AMES SALMONELLA TYPHIMURIUM, Strain/Indicator: TA100, Metabolic Activation: NONE, Method: STANDARD PLATE); “inactive; negative” (Test System: AMES SALMONELLA TYPHIMURIUM, Strain/Indicator: TA1535, Metabolic Activation: HAMSTER, LIVER, S-9, AROCLOR 1254, Method: STANDARD PLATE); “inactive; negative” (Test System: AMES SALMONELLA TYPHIMURIUM, Strain/Indicator: TA1535, Metabolic Activation: HAMSTER, LIVER, S-9, Method: STANDARD PLATE); “inactive; negative” (Test System: AMES SALMONELLA TYPHIMURIUM, Strain/Indicator: TA1535, Metabolic Activation: MOUSE, LIVER, S-9, AROCLOR 1254, Method: STANDARD PLATE). Further, the mutagenic call is “inactive; negative” (Test System: AMES SALMONELLA TYPHIMURIUM, Strain/Indicator: TA1535, Metabolic Activation: MOUSE, LIVER, S-9, Method: STANDARD PLATE); “inactive; negative” (Test System: AMES SALMONELLA TYPHIMURIUM, Strain/Indicator: TA1535, Metabolic Activation: NONE, Method: STANDARD PLATE); “inactive; negative” (Test System: AMES SALMONELLA TYPHIMURIUM, Strain/Indicator: TA1535, Metabolic Activation: RAT, LIVER, S-9, AROCLOR 1254, Method: STANDARD PLATE); “inactive; negative” (Test System: AMES SALMONELLA TYPHIMURIUM, Strain/Indicator: TA1535, Metabolic Activation: RAT, LIVER, S-9, Method: STANDARD PLATE); “inactive; negative” (Test System: AMES SALMONELLA TYPHIMURIUM, Strain/Indicator: TA1537, Metabolic Activation: HAMSTER, LIVER, S-9, AROCLOR 1254, Method: STANDARD PLATE); “inactive; negative” (Test System: AMES SALMONELLA TYPHIMURIUM, Strain/Indicator: TA1537, Metabolic Activation: HAMSTER, LIVER, S-9, Method: STANDARD PLATE). Moreover, the mutagenic call is “inactive; negative” (Test System: AMES SALMONELLA TYPHIMURIUM, Strain/Indicator: TA1537, Metabolic Activation: MOUSE, LIVER, S-9, AROCLOR 1254, Method: STANDARD PLATE); “inactive; negative” (Test System: AMES SALMONELLA TYPHIMURIUM, Strain/Indicator: TA1537, Metabolic Activation: MOUSE, LIVER, S-9, Method: STANDARD PLATE); “inactive; negative” (Test System: AMES SALMONELLA TYPHIMURIUM, Strain/Indicator: TA1537, Metabolic Activation: NONE, Method: STANDARD PLATE); “inactive; negative” (Test System: AMES SALMONELLA TYPHIMURIUM, Strain/Indicator: TA1537, Metabolic Activation: RAT, LIVER, S-9, AROCLOR 1254, Method: STANDARD PLATE); “inactive; negative” (Test System: AMES SALMONELLA TYPHIMURIUM, Strain/Indicator: TA1537, Metabolic Activation: RAT, LIVER, S-9, Method: STANDARD PLATE); “inactive; negative” (Test System: AMES SALMONELLA TYPHIMURIUM, Strain/Indicator: TA1538, Metabolic Activation: HAMSTER, LIVER, S-9, AROCLOR 1254, Method: STANDARD PLATE). The mutagenic call was “inactive; negative” (Test System: AMES SALMONELLA TYPHIMURIUM, Strain/Indicator: TA1538, Metabolic Activation: HAMSTER, LIVER, S-9, Method: STANDARD PLATE); “inactive; negative” (Test System: AMES SALMONELLA TYPHIMURIUM, Strain/Indicator: TA1538, Metabolic Activation: MOUSE, LIVER, S-9, AROCLOR 1254, Method: STANDARD PLATE); “inactive; negative” (Test System: AMES SALMONELLA TYPHIMURIUM, Strain/Indicator: TA1538, Metabolic Activation: MOUSE, LIVER, S-9, Method: STANDARD PLATE); “inactive; negative” (Test System: AMES SALMONELLA TYPHIMURIUM, Strain/Indicator: TA1538, Metabolic Activation: NONE, Method: STANDARD PLATE); “inactive; negative” (Test System: AMES SALMONELLA TYPHIMURIUM, Strain/Indicator: TA1538, Metabolic Activation: RAT, LIVER, S-9, AROCLOR 1254, Method: STANDARD PLATE); “inactive; negative” (Test System: AMES SALMONELLA TYPHIMURIUM, Strain/Indicator: TA1538, Metabolic Activation: RAT, LIVER, S-9, Method: STANDARD PLATE). Moreover, the mutagenic call is, setting by setting: (Test System: E. COLI, Strain/Indicator: WP2 UVRA, Metabolic Activation: HAMSTER, LIVER, S-9, AROCLOR 1254, Method: STANDARD PLATE) “inactive; negative”; (Test System: E. COLI, Strain/Indicator: WP2 UVRA, Metabolic Activation: HAMSTER, LIVER, S-9, Method: STANDARD PLATE) “inactive; negative”; (Test System: E. COLI, Strain/Indicator: WP2 UVRA, Metabolic Activation: MOUSE, LIVER, S-9, AROCLOR 1254, Method: STANDARD PLATE) “inactive; negative”; (Test System: E. COLI, Strain/Indicator: WP2 UVRA, Metabolic Activation: MOUSE, LIVER, S-9, Method: STANDARD PLATE) “inactive; negative”; (Test System: E. COLI, Strain/Indicator: WP2 UVRA, Metabolic Activation: NONE, Method: STANDARD PLATE) “inactive; negative”; (Test System: E. COLI, Strain/Indicator: WP2 UVRA, Metabolic Activation: RAT, LIVER, S-9, AROCLOR 1254, Method: STANDARD PLATE) “inactive; negative”. Also, the mutagenic call runs as follows: (Test System: E. COLI, Strain/Indicator: WP2 UVRA, Metabolic Activation: RAT, LIVER, S-9, Method: STANDARD PLATE) “inactive; negative”; (Test System: MOUSE LYMPHOMA, Strain/Indicator: L5178Y (TK+/TK-), Metabolic Activation: NONE, Method: SUSPENSION/PLATE) “active; positive”; (Test System: MOUSE LYMPHOMA, Strain/Indicator: L5178Y (TK+/TK-), Metabolic Activation: RAT, LIVER, S-9, AROCLOR 1254, Method: SUSPENSION/PLATE) “active; positive”.
